This passage reports relative viability results from the supplement of paper PMC10307832.

What all share (assay): relative viability (nuclei count vs DMSO), 5 days (fraction); higher = more cells survive
Compound in one assay: C=C(c1ccc(C(=O)O)cc1)c1cc2c(cc1C)C(C)(C)CCC2(C)C [Bexarotene]
An outline of the steps:
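Following overnight incubation at 37 °C, lung cancer cell lines in 1536-well plates were pinned with five library-drug doses (not always all listed) in √10 steps on vehicle-anchored plates. The cells then spent 5 days without medium change before a combined fix, permeabilisation and Hoechst stain, 4× imaging and MetaXpress nuclear counts. Viability is the treated-to-vehicle ratio of nuclei, taken as the median across plates. Only plates with control CV below 25% and at least one doubling passed.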

Compound in the assay “Bexarotene + Trametinib”: C=C(c1ccc(C(=O)O)cc1)c1cc2c(cc1C)C(C)(C)CCC2(C)C [Bexarotene] + CC(=O)Nc1cccc(-n2c(=O)n(C3CC3)c(=O)c3c(Nc4ccc(I)cc4F)n(C)c(=O)c(C)c32)c1 [Trametinib] (partner 0.02 µM)
An outline of the steps:
(§1)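 Dosing by pin tool came one day after lung cancer cell lines were seeded in 1536-well plates, using either one drug or a fixed anchor-drug dose plus five library-drug doses (not always all listed) in √10 steps. After 5 days, nuclei were counted on 4× images. Relative viability is treated-well nuclei count divided by vehicle-well nuclei count, and values are medians of duplicate plates.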

Compound in the assay “Bexarotene + Tozasertib”: C=C(c1ccc(C(=O)O)cc1)c1cc2c(cc1C)C(C)(C)CCC2(C)C [Bexarotene] + Cc1cc(Nc2cc(N3CCN(C)CC3)nc(Sc3ccc(NC(=O)C4CC4)cc3)n2)n[nH]1 [Tozasertib] (partner 0.1 µM)
The procedure, abridged:
as §1

Compound in the assay “Bexarotene + AZD7762”: C=C(c1ccc(C(=O)O)cc1)c1cc2c(cc1C)C(C)(C)CCC2(C)C [Bexarotene] + NC(=O)Nc1cc(-c2cccc(F)c2)sc1C(=O)N[C@H]1CCCNC1 [AZD7762] (partner 0.2 µM)
An outline of the steps:
as §1

With NCI-H647, the relative viability turned out to be 1.03 with Bexarotene (0.08 µM); 1.08 with Bexarotene (0.253 µM); 0.896 in the assay with Bexarotene (0.8 µM); 0.924 in the assay with Bexarotene (2.53 µM); 0.874 in the assay with Bexarotene (8 µM); 0.663 in the assay with Bexarotene + Trametinib (first compound 0.08 µM). The relative viability with Bexarotene + Trametinib (first compound 0.253 µM) is 0.46; with Bexarotene + Trametinib (first compound 0.8 µM), 0.335; with Bexarotene + Trametinib (first compound 2.53 µM), 0.433; with Bexarotene + Trametinib (first compound 8 µM), 0.44; in the assay with Bexarotene + Tozasertib (first compound 0.08 µM), 0.351; with Bexarotene + Tozasertib (first compound 0.253 µM), 0.432. For the same cell line, the relative viability in the assay with Bexarotene + Tozasertib (first compound 0.8 µM) amounted to 0.257; with Bexarotene + Tozasertib (first compound 2.53 µM), 0.279; in the assay with Bexarotene + Tozasertib (first compound 8 µM), 0.324; in the assay with Bexarotene + AZD7762 (first compound 0.08 µM) it was 0.429; with Bexarotene + AZD7762 (first compound 0.253 µM), 0.463; with Bexarotene + AZD7762 (first compound 0.8 µM) it was 0.459. The relative viability came to 0.272 with Bexarotene + AZD7762 (first compound 2.53 µM) and 0.33 in the assay with Bexarotene + AZD7762 (first compound 8 µM).

For NCI-H1651, the relative viability with Bexarotene (0.08 µM) worked out at 1.08; with Bexarotene (0.253 µM), 0.987; with Bexarotene (0.8 µM), 1.01; in the assay with Bexarotene (2.53 µM), 1.02; with Bexarotene (8 µM) it was 1; in the assay with Bexarotene + Trametinib (first compound 0.08 µM), 0.861. Moreover, the relative viability with Bexarotene + Trametinib (first compound 0.253 µM) came to 0.867; with Bexarotene + Trametinib (first compound 0.8 µM), 0.884; with Bexarotene + Trametinib (first compound 2.53 µM), 0.875; with Bexarotene + Trametinib (first compound 8 µM), 0.827; in the assay with Bexarotene + Tozasertib (first compound 0.08 µM), 0.929; with Bexarotene + Tozasertib (first compound 0.253 µM) it was 0.64. The relative viability in the assay with Bexarotene + Tozasertib (first compound 0.8 µM) turned out to be 0.741; in the assay with Bexarotene + Tozasertib (first compound 2.53 µM) it was 0.594; with Bexarotene + Tozasertib (first compound 8 µM) it was 0.791; in the assay with Bexarotene + AZD7762 (first compound 0.08 µM) it was 0.544; with Bexarotene + AZD7762 (first compound 0.253 µM) it was 0.491; in the assay with Bexarotene + AZD7762 (first compound 0.8 µM), 0.525. The relative viability came to 0.454 with Bexarotene + AZD7762 (first compound 2.53 µM) and 0.549 with Bexarotene + AZD7762 (first compound 8 µM).

For the cell line NCI-H1734, the relative viability with Bexarotene (0.08 µM) was 1.04; with Bexarotene (0.253 µM), 0.966; in the assay with Bexarotene (0.8 µM), 0.989; in the assay with Bexarotene (2.53 µM), 0.881; in the assay with Bexarotene (8 µM) it was 0.879; with Bexarotene + Trametinib (first compound 0.08 µM) it was 0.69. The relative viability amounted to 0.732 in the assay with Bexarotene + Trametinib (first compound 0.253 µM); 0.642 in the assay with Bexarotene + Trametinib (first compound 0.8 µM); 0.589 with Bexarotene + Trametinib (first compound 2.53 µM); 0.57 with Bexarotene + Trametinib (first compound 8 µM); 0.281 with Bexarotene + Tozasertib (first compound 0.08 µM); 0.244 in the assay with Bexarotene + Tozasertib (first compound 0.253 µM). Moreover, the relative viability with Bexarotene + Tozasertib (first compound 0.8 µM) was 0.26; with Bexarotene + Tozasertib (first compound 2.53 µM), 0.285; with Bexarotene + Tozasertib (first compound 8 µM), 0.257; with Bexarotene + AZD7762 (first compound 0.08 µM) it was 0.552; with Bexarotene + AZD7762 (first compound 0.253 µM) it was 0.536; with Bexarotene + AZD7762 (first compound 0.8 µM) it was 0.522. Also, the relative viability worked out at 0.488 with Bexarotene + AZD7762 (first compound 2.53 µM) and 0.526 with Bexarotene + AZD7762 (first compound 8 µM).

As for NCI-H3122, the relative viability with Bexarotene (0.08 µM) was determined as 1.05; in the assay with Bexarotene (0.253 µM), 1.11; with Bexarotene (0.8 µM), 1.03; with Bexarotene (2.53 µM), 1.04; in the assay with Bexarotene (8 µM) it was 1.05; with Bexarotene + Trametinib (first compound 0.08 µM), 0.25. For the same cell line, the relative viability was determined as 0.229 in the assay with Bexarotene + Trametinib (first compound 0.253 µM); 0.191 with Bexarotene + Trametinib (first compound 0.8 µM); 0.238 with Bexarotene + Trametinib (first compound 2.53 µM); 0.224 in the assay with Bexarotene + Trametinib (first compound 8 µM); 0.431 with Bexarotene + Tozasertib (first compound 0.08 µM); 0.492 with Bexarotene + Tozasertib (first compound 0.253 µM). Moreover, the relative viability with Bexarotene + Tozasertib (first compound 0.8 µM) was 0.425; with Bexarotene + Tozasertib (first compound 2.53 µM) it was 0.471; with Bexarotene + Tozasertib (first compound 8 µM), 0.476; with Bexarotene + AZD7762 (first compound 0.08 µM) it was 1.05; with Bexarotene + AZD7762 (first compound 0.253 µM) it was 1; with Bexarotene + AZD7762 (first compound 0.8 µM) it was 0.944. Moreover, the results for the relative viability with Bexarotene + AZD7762 (first compound 2.53 µM) and in the assay with Bexarotene + AZD7762 (first compound 8 µM) were 0.968 and 1.13, respectively.

As for CAL-12T, the relative viability turned out to be 0.989 with Bexarotene (0.08 µM); 0.992 in the assay with Bexarotene (0.253 µM); 0.981 with Bexarotene (0.8 µM); 0.844 in the assay with Bexarotene (2.53 µM); 0.917 with Bexarotene (8 µM); 0.349 in the assay with Bexarotene + Trametinib (first compound 0.08 µM). Further, the relative viability with Bexarotene + Trametinib (first compound 0.253 µM) is 0.286; in the assay with Bexarotene + Trametinib (first compound 0.8 µM), 0.319; with Bexarotene + Trametinib (first compound 2.53 µM), 0.233; with Bexarotene + Trametinib (first compound 8 µM), 0.319; with Bexarotene + Tozasertib (first compound 0.08 µM) it was 0.264; with Bexarotene + Tozasertib (first compound 0.253 µM), 0.309. Besides, the relative viability in the assay with Bexarotene + Tozasertib (first compound 0.8 µM) is 0.227; with Bexarotene + Tozasertib (first compound 2.53 µM), 0.276; with Bexarotene + Tozasertib (first compound 8 µM), 0.244; with Bexarotene + AZD7762 (first compound 0.08 µM) it was 0.649; with Bexarotene + AZD7762 (first compound 0.253 µM), 0.549; in the assay with Bexarotene + AZD7762 (first compound 0.8 µM), 0.603. For the same cell line, the relative viability with Bexarotene + AZD7762 (first compound 2.53 µM) was determined as 0.427; with Bexarotene + AZD7762 (first compound 8 µM), 0.513.

HCC-78: the relative viability with Bexarotene (0.08 µM) came out at 1.09; in the assay with Bexarotene (0.253 µM), 0.889; in the assay with Bexarotene (0.8 µM), 0.844; with Bexarotene (2.53 µM), 0.849; with Bexarotene (8 µM) it was 1.08; with Bexarotene + Trametinib (first compound 0.08 µM), 0.833. Moreover, the relative viability with Bexarotene + Trametinib (first compound 0.253 µM) amounted to 0.952; with Bexarotene + Trametinib (first compound 0.8 µM) it was 0.545; with Bexarotene + Trametinib (first compound 2.53 µM), 0.708; in the assay with Bexarotene + Trametinib (first compound 8 µM) it was 0.861; with Bexarotene + Tozasertib (first compound 0.08 µM) it was 0.401; with Bexarotene + Tozasertib (first compound 0.253 µM), 0.483. For the same cell line, the relative viability with Bexarotene + Tozasertib (first compound 0.8 µM) worked out at 0.414; in the assay with Bexarotene + Tozasertib (first compound 2.53 µM), 0.435; with Bexarotene + Tozasertib (first compound 8 µM), 0.413; in the assay with Bexarotene + AZD7762 (first compound 0.08 µM), 0.638; in the assay with Bexarotene + AZD7762 (first compound 0.253 µM), 0.391; in the assay with Bexarotene + AZD7762 (first compound 0.8 µM), 0.542. The relative viability in the assay with Bexarotene + AZD7762 (first compound 2.53 µM) turned out to be 0.554; with Bexarotene + AZD7762 (first compound 8 µM), 0.638.

Turning to NCI-H2085, the relative viability amounted to 0.981 with Bexarotene (0.08 µM); 0.979 in the assay with Bexarotene (0.253 µM); 0.903 with Bexarotene (0.8 µM); 0.869 in the assay with Bexarotene (2.53 µM); 0.901 with Bexarotene (8 µM); 0.486 in the assay with Bexarotene + Trametinib (first compound 0.08 µM). Further, the relative viability with Bexarotene + Trametinib (first compound 0.253 µM) was 0.59; with Bexarotene + Trametinib (first compound 0.8 µM) it was 0.4; in the assay with Bexarotene + Trametinib (first compound 2.53 µM) it was 0.449; in the assay with Bexarotene + Trametinib (first compound 8 µM), 0.535; in the assay with Bexarotene + Tozasertib (first compound 0.08 µM), 0.865; with Bexarotene + Tozasertib (first compound 0.253 µM), 0.834. The relative viability with Bexarotene + Tozasertib (first compound 0.8 µM) was 0.728; with Bexarotene + Tozasertib (first compound 2.53 µM), 0.771; with Bexarotene + Tozasertib (first compound 8 µM), 0.767; in the assay with Bexarotene + AZD7762 (first compound 0.08 µM) it was 0.868; with Bexarotene + AZD7762 (first compound 0.253 µM), 0.92; in the assay with Bexarotene + AZD7762 (first compound 0.8 µM) it was 0.803. Further, the relative viability with Bexarotene + AZD7762 (first compound 2.53 µM) was 0.789; with Bexarotene + AZD7762 (first compound 8 µM), 0.815.
